Test results published in patent US9272047B2, “Use of biological surfactant as anti-inflammatory agent and tissue preservative solution” (Shaperon Inc., priority 2007, dated 2016).

Tests used:
[1] = tested on: NF-κB; test: Inhibition of E. coli LPS-stimulated NF-κB activation (CD25 expression) in 3FP CHO cells; format: cell-based, Chinese hamster; conditions: live 7AAD(−) LPS-stimulated 3FP cells
Experimental: In order to evaluate the inhibition efficacy for the activation of E. coli LPS-stimulated NF-κB in a CHO cell, % expression of CD 25 in the CHO cell was evaluated as the following method, and FACS analysis after staining with 7-AAD was carried out to evaluate the cytotoxicity. Bile salts were classified into 3 groups based on their solubility in different solvents, as follows:
The CHO cells expressing CD25 under the regulation of a nuclear factor (NF-κB) promoter, shown FIG. 2A, were used for this experiment. Toll-like receptor 2 (TLR2) and CD14 gene-transformed CHO cells (hereinafter referred to as “3FP cells”) were also used.
The next day, the cultured cells were treated with bile acid derivatives and LPS, and were incubated in a CO2 incubator for 15 hr at 37° C.
After stimulating the above incubated cells for 15 hr, the culture solution was centrifuged (1200 rpm, 5 min, 4° C.) to remove the culture supernatant. The precipitate was washed twice with 200 μl of FACS buffer (1×PBS containing 1% BSA and 1 mM EDTA). 20 μl of blocking solution (PBS containing 1:10 of normal mouse serum and 1:3 of anti-human CD14/CD32 (BD, 2.4G2) was added to each well and reacted on an ice for 30 min. A mixture solution of anti-human CD25-PE (1:16) and anti-human CD14-FITC (1:32) was added to the well and then reacted on the ice for 30 min. The reaction mixture was washed twice with 200 μl of FACS buffer, and then 200 μl of 7-AAD (1:20) was added to the reaction mixture. After the reaction mixture was reacted on the ice for 10 min, CD25 expression efficacy and cytotoxicity were analyzed by using a flow cytometer.
In order to analyze living cells, 7-AAD(−) cells were selected and an activation of nuclear transcription factor was confirmed by the increase of CD25 expression.

[2] = tested on: dendritic cells; test: Inhibition of E. coli LPS-induced activation of dendritic cells (CD40, CD80, CD86, I-Ab expression); format: cell-based, mouse; conditions: 100 ng/ml E. coli LPS; CD11c(+)/7AAD(−) dendritic cells
Experimental: In order to assay the effect of sodium glycocholate on the activation procedure of antigen presenting cells, which is induced by E. coli LPS, cells were separated from the bone marrow of recombination activating gene 2 (Rag2) deficient mouse. The separated cells were plated at 2×10^5 cells/well in a 96-well plate and then treated with 1.5 ng/ml of granulocyt-macrophage colony-stimulating factor (GM-CSF) and 0.75 ng/ml of interleukin-4 followed by the differentiation of the cells into dentritic cells through 6-day incubation.
The dendritic cells were well mixed with sodium glycocholate and LPS. The mixtures were stimulated for 18 hours at 37° C., and stained with anti-CD40-FITC, anti-CD80-FITC, anti-I-Ab-PE, anti-CD86-PE, 7AAD and anti-CD11c-APC, then the cells were assayed via a flow cytometer. Each group was treated and assayed at least twice, and the results were statistically analyzed through t-test. The results were p<0.05 compared with the experimental groups treated by only LPS.
As shown FIGS. 9A-9B to 11A-11B, in order to assay only living dedritic cells, CD11c(+)/7AAD(−) cells were selected and then the expressions of dendritic cell costimulatory molecules and I-Ab were assayed.

[3] = tested on: dendritic cells; test: Inhibition of LPS-induced nitric oxide generation, dendritic cells (Griess); format: cell-based, mouse; conditions: dendritic cells stimulated by LPS, 18 hours
Experimental: (§1) Then, the resulting dendritic cell mixtures were plated, by […] each, in a 96-well plate. Griss reagents were added to each well, and the 96-well plate was covered with foils and kept reacting for 15 min at room temperature. Absorbance at 540 nm was measured using an ELISA reader. Macrophages separated from abdomen were also treated with sodium glycocholate, sodium taurochenodeoxycholate and sodium taurodeoxycholate, respectively, and then stimulated with LPS for 18 hours. Thereafter, the same experiments as the dentritic cells were performed to the macrophages.

[4] = tested on: macrophages; test: Inhibition of LPS-induced nitric oxide generation, macrophages (Griess); format: cell-based, mouse; conditions: macrophages stimulated by LPS, 18 hours
Experimental: as §1

Row | Molecule | inhibition effect for LPS-stimulated CD25 expression (NF-κB activation) [1] | increased expression of CD40, CD80, CD86 and I-Ab [2] | generation of NO [3] | generation of NO [4]
1 | C[C@H](CCC(=O)O)[C@H]1CC[C@H]2[C@@H]3C(=O)C[C@@H]4CC(=O)CC[C@]4(C)[C@H]3CC(=O)[C@]12C [dehydrocholic acid] | showed inhibition effects |  |  | 
2 | C[C@H](CCC(=O)NCCS(=O)(=O)O)[C@H]1CC[C@H]2[C@@H]3[C@H](O)C[C@@H]4C[C@H](O)CC[C@]4(C)[C@H]3C[C@H](O)[C@]12C [sodium taurocholate hydrate] | showed an inhibition effect |  |  | 
3 | C[C@H](CCC(=O)NCC(=O)O)[C@H]1CC[C@H]2[C@@H]3[C@H](O)C[C@@H]4C[C@H](O)CC[C@]4(C)[C@H]3C[C@H](O)[C@]12C [glycocholic acid hydrate] | showed inhibition effects |  |  | 
4 | sodium deoxycholate | showed an inhibition effect |  |  | 
5 | C[C@H](CCC(=O)O)[C@H]1CC[C@H]2[C@@H]3[C@H](O)C[C@@H]4C[C@H](O)CC[C@]4(C)[C@H]3CC[C@]12C [chenodeoxycholic acid] | showed inhibition effects |  |  | 
6 | C[C@H](CCC(=O)NCCS(=O)(=O)O)[C@H]1CC[C@H]2C3[C@H](O)C[C@@H]4C[C@H](O)CC[C@]4(C)[C@H]3CC[C@]12C (stereo partly drawn) [sodium taurochenodeoxycholate] | showed an inhibition effect | inhibited depending on the concentration | inhibited | inhibited
7 | C[C@H](CCC(=O)NCC(=O)[O-])[C@H]1CC[C@H]2[C@@H]3[C@H](O)C[C@@H]4C[C@H](O)CC[C@]4(C)[C@H]3CC[C@]12C.[Na+] [sodium glycochenodeoxycholate] | showed an inhibition effect |  |  | 
8 | C[C@H](CCC(=O)NCCS(=O)(=O)[O-])[C@H]1CC[C@H]2[C@@H]3CC[C@@H]4C[C@H](O)CC[C@]4(C)[C@H]3C[C@H](O)[C@]12C.[Na+] [sodium taurodeoxycholate hydrate] | showed an inhibition effect | inhibited depending on the concentration | inhibited | inhibited
9 | C[C@H](CCC(=O)O)[C@H]1CC[C@H]2[C@@H]3[C@H](O)C[C@@H]4C[C@H](O)CC[C@]4(C)[C@H]3C[C@H](O)[C@]12C [cholic acid] | showed inhibition effects |  |  | 
